What was measured:
[1] = molecular target: T1, Human Inosine 5′-Monophosphate Dehydrogenase 1 (IMPDH) (Homo sapiens, UniProt P20839); assay: Inhibition of human inosine 5′-monophosphate dehydrogenase (IMPDH assay kit); assay type: biochemical
T1 construct: purchased R&D Systems 8904DH
Description: Human Inosine 5′-Monophosphate Dehydrogenase 1 (IMPDH) catalyzes the nicotinamide adenine dinucleotide (NAD)-dependent oxidation of inosine-5′-monophosphate (IMP) to xanthosine-5′-monophosphate (XMP), which is the committed step in de novo guanosine nucleotide biosynthesis. B and T lymphocytes depend on IMPDH activity to generate the guanosine nucleotide levels needed to initiate a proliferative response to mitogen or antigen.
A comparison of the ability of MPA and hexadecyl mycophenolate (mono-C16MP) to inhibit IMPDH was undertaken.
IMPDH (R&D Systems 8904DH) was incubated with mycophenolic acid (MPA) and, separately, mono-C16MP at concentrations ranging from about 0.015 to 15 μM. The IMPDH activity was determined using a BMR Service IMPDH assay kit (E-119).
Inhibition of IMPDH was calculated as a percentage of IMPDH activity in the absence of MPA.

[2] = Lung to plasma MPA ratio after inhaled dosing of MPS, MMF or mono-C16MP in mice; assay type: in vivo; conditions: inhalation, C57BL/6 mice, 0-6 h post-dose
Method: Studies to determine the lung to plasma ratio obtained by inhalation of mycophenolate sodium (MPS), mycophenolate mofetil (MMF), and hexadecyl mycophenolate (mono-C16MP) were conducted.
In each study group, C57BL/6 mice were given MPS, MMF or mono-C16MP by inhalation and the lung and plasma mycophenolic acid (MPA) concentrations were measured at t=0, 0.5, 1, 2, 4, and 6 h post-dose.
For each mouse in the study, the lung to plasma MPA ratios were calculated; the individual calculated ratios were averaged for each treatment group and the average values were plotted, shown in FIG. 6.

[3] = test system: rat alveolar macrophages (NR8383); assay: Cytotoxicity toward rat alveolar macrophages (NR8383), CellTox green assay; assay type: cell-based; conditions: NR8383 cells, any concentration tested (0.15 to about 15 μm), 20 h
Method: (§1) Rat alveolar macrophages (NR8383) were co-treated with 25 ng/mL lipopolysaccharide (LPS) and mycophenolate sodium at concentrations ranging from 0.15 to about 15 μm for a period of 20 h. After this period, the cell supernatants were collected for TNF measurement and the remaining macrophages were assessed for cytotoxicity. TNF concentrations were assayed using a rat TNF ELISA kit available from ThermoFisher. Cytotoxicity was determined using the CellTox green assay available from Promega.
(§2) Inhibition of TNF-α production was calculated as a percentage of LPS-stimulated TNF production in the absence of mycophenolate sodium.

[4] = test system: LPS-stimulated TNF-α production in rat alveolar macrophages (NR8383); assay: Inhibition of LPS-stimulated TNF-α production in rat alveolar macrophages (NR8383), TNF ELISA; assay type: cell-based; conditions: Macrophage, NR8383 cells, co-treated with 25 ng/mL LPS, 20 h
Method: as §1, §2

[5] = test system: THP-1 derived human macrophages; assay: Cytotoxicity toward human THP-1 derived macrophages, CellTox green assay; assay type: cell-based
Method: (§3) THP-1 cells were cultured in media with 50 ng/mL phorbol myristate acetate (PMA) for 24 h and then in fresh media without PMA for an additional 24 h. […] The well plates were treated with mycophenolate sodium at concentrations ranging from 0.03 to 10 μm and incubated for a period for 4 h. After this period, LPS was added to each well plate at a concentration of 100 pg/mL and the LPS-, mycophenolate-treated well plates were incubated for 16 h. After 16 h, the cell supernatants were collected for TNF measurement and the remaining macrophages were assessed for cytotoxicity. TNF concentrations were assayed using a human TNF ELISA kit available from ThermoFisher. Cytotoxicity was determined using the CellTox green assay available from Promega.
as §2

[6] = test system: LPS-stimulated TNF-α production in THP-1 derived human macrophages; assay: Inhibition of LPS-stimulated TNF-α production in human THP-1 derived macrophages, TNF ELISA; assay type: cell-based; conditions: 4 h pre-incubation, then 100 pg/mL LPS for 16 h
Method: as §3, §2

T1 sequence (P20839 whole entry): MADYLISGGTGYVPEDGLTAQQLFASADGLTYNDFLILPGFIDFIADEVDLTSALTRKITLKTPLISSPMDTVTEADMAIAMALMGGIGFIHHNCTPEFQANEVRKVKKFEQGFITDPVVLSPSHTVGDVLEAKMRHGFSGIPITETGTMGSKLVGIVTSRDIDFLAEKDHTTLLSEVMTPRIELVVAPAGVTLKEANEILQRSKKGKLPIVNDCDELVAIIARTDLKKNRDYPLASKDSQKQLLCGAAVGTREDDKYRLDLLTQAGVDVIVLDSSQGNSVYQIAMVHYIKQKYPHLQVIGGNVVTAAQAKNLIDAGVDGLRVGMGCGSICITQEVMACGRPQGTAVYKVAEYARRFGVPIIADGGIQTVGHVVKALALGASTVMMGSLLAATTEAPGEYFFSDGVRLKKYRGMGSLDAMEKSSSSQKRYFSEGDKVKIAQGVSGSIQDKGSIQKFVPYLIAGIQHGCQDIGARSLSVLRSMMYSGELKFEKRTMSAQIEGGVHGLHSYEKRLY

Compound: COc1c(C)c2c(c(O)c1C/C=C(\C)CCC(=O)O)C(=O)OC2 [MPA, (4E)-6-(4-hydroxy-6-methoxy-7-methyl-3-oxo-1,3-dihydro-2-benzofuran-5-yl)-4methylhex-4-enoic acid]
- IC50 [1]: 140 nM

Compound: CCCCCCCCCCCCCCCCOC(=O)CC/C(C)=C/Cc1c(O)c2c(c(C)c1OC)COC2=O [mono-C16MP, hexadecyl mycophenolate]
- Lung to plasma exposure ratio of MPA compared to the ratio obtained with MPS or MMF [2]: higher lung to plasma exposure ratio
- Inhibition of IMPDH ([1]; about 0.015 to 15 μM tested): does not inhibit IMPDH in a concentration-dependent manner

Compound: COc1c(C)c2c(c(O)c1C/C=C(\C)CCC(=O)O)C(=O)OC2 [mycophenolate sodium]
- Cytotoxicity [3]: no significant cytotoxicity
- Emax [4]: 54%
- IC50 [4]: 1500 nM
- Cytotoxicity ([5]; 3 μM, P<0.05): 6.6%
- Cytotoxicity ([5]; 10 μM, P<0.05): 8.9%
- Cytotoxicity ([5]; concentrations <3 μM): no significant cytotoxicity
- Emax [6]: 67%
- IC50 [6]: 1400 nM
